In the experiment the test system is pig skin stratum corneum. In words: In vitro measurement of stratum corneum extensibility (linear extensometer). As to conditions: 44% relative humidity; for Extensibility ratio: ratio of force/extension slopes before and after treatment, 2% extension at 20mm/min, application 4µl/cm² (25ng), mean ± standard deviation, ratio >1 = increased extensibility. From the text: The benefits of the composition following topical application to skin can be quantified by in vitro measurements employing pig skin and an extensometer, in accordance with the following procedure.
Pig skin was selected for this evaluation and this was first cleaned with an aqueous ethanol-chlorohexidine solution (15 : 75 : 10:, Hibitane; ICI Pharmaceuticals). Hairs were removed by clipping followed by depilation with commercially-available thioglycolate cream (Immac : Whitehall Laboratories) and 0.4mm thick slices of skin were removed using a Davies electric skin dermatome. Stratum corneum was isolated by incubating strips of skin, dermis side down, into a solution of trypsin (0.25g% Flow Laboratories) and phosphate-buffered saline (PBS) comprising 137mM NaCl; 2.68mM KCl; 8.1mM NaHPO₄; 1.47mM KH₂PO₄ at pH 7.4 for 2-4h at 37°C. The dermis was separated from the epidermis using forceps and the latter was incubated in fresh trypsin-PBS solution overnight at 4°C. The enzyme solution was changed several times on the following day before the stratum corneum was washed with sonication (Lucas Dawe Ultrasonics; bath sonicleaner) and three changes of PBS to remove trypsin and residual cells. The corneum was then washed with distilled water containing 0.02% sodium azide (to inhibit bacterial growth) before floating onto fluorocarbon filter (Spectra-mesh; 149µ mesh). After drying at ambient temperature and humidity the sheets of corneum were cut into rectangular strips measuring 1 x 2.5cm. The pieces of corneum were mounted at each end with plastic tape (Flow tape; Flow Laboratories) and a 6mm hole was punched into the centre of each tab. During this whole procedure the orientation of the stratum corneum was maintained to ensure samples were treated on their external surfaces only in subsequent experiments. Samples were stored in petri-dishes at ambient humidity and temperature until required. […]
The extensibility of pig skin stratum corneum was measured following treatment with ω-(O-linoleoyl)ceramide having the structure (12), as herein defined. […]

Consider `CCCCC/C=C\C/C=C\CCCCCCCC(=O)O` [Linoleate, reference compound], for which the Extensibility ratio is listed as 1.29 ± 0.16.

Consider `CCCCC/C=C\C/C=C\CCCCCCCC(=O)OCCCCCCCCCCCCCCCCCCCCCC(=O)NC(CO)C(O)C=CCCCCCCCCCCCCC` (stereo not drawn) [Ceramide structure (12), ω-(O-linoleoyl)ceramide], for which the Extensibility ratio stood at 2.11 ± 0.45. For the same molecule, the “extensibility ratio compared with hydrolysed ceramide structure (12) or linoleate” value (students t test, significance at the 5% level, 4µl/cm² (25ng)) is “significantly greater”.

The values above are taken from patent EP0542549A1, “Use of cosmetic composition” (UNILEVER PLC, priority 1991, dated 1993).
